According to patent US20250368633A1, “AZEPINE FUSED RING COMPOUND AS RIPK1 INHIBITOR AND USE THEREOF” (ARTIVILA BIOPHARMA, priority 2022, published 2025):

Assays:
U937 cells = experiment: EC50 of necroptosis inhibition in U937 cells (TSZ-induced, CellTiter-Glo); assay type: cell-based; conditions: Homo sapiens, U-937; TSZ (hTNF-α, SM-164, Z-VAD-FMK) 20 hours; 10 concentration points; read-out: EC50 intervals of necroptosis inhibition in U937 cells
How it was run: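 Luminescent ATP readout (CellTiter-Glo) after 20 h gave viability of TSZ-challenged U937 cells; compounds were added 15 min ahead of TNF-α/SM-164/Z-VAD-FMK. EC50 derived by variable-slope nonlinear regression of inhibition relative to no-TSZ and TSZ-alone controls.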

RIPK1 kinase = target: T1, RIPK1 kinase (Homo sapiens, UniProt Q13546); experiment: In vitro RIPK1 kinase activity assay (ADP-Glo), inhibition by compounds at 1 μM; assay type: biochemical; conditions: compound 1 μM; ATP 10 μM; MBP substrate 100 μg/mL; read-out: RIPK1 kinase activity inhibition rate range
T1 construct: purchased Promega VA7593
T1 sequence (Q13546 1-671): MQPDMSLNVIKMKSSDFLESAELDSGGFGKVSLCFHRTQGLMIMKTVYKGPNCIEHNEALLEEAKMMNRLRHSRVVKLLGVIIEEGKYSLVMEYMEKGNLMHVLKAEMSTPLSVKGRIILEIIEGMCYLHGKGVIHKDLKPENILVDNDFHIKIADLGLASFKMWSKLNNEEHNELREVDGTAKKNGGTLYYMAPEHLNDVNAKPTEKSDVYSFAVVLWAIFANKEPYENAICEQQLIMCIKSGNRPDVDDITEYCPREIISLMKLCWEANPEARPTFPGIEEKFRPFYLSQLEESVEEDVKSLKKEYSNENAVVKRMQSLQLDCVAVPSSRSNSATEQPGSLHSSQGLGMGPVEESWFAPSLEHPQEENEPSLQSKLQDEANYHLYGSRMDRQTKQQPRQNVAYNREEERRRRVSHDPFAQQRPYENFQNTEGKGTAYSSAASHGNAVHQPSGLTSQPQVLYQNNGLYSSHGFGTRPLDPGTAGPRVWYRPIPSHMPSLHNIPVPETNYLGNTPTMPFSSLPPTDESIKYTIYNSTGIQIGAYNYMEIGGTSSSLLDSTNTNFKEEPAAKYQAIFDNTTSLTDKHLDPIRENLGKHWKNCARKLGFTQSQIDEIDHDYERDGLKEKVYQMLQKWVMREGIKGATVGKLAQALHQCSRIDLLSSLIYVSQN
How it was run: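 Read by ADP-Glo chemiluminescence as percent inhibition: RIPK1 kinase, 15-min room-temperature compound preincubation, then 1-h reaction with MBP (100 μg/mL final) and ATP (10 μM final). Enzyme level was set by titration.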

inhibition at 1 µM (RIPK1 kinase) [%]	Compound	EC50 (U937 cells) [nM]
≥ 75	COC(=O)C1(C#Cc2ccc3c(c2)N(C)C(=O)[C@@H](NC(=O)C(=O)NCCc2ccccc2)CO3)CC1 [Example 96, methyl (S)-1-((5-methyl-4-oxo-3-(2-oxo-2-(phenethylamino)acetamido)-2,3,4,5-tetrahydrobenzo[b][1,4]oxazepin-7-yl)ethynyl)cyclopropane-1-carboxylate]	< 100
≥ 75	CN1C(=O)[C@@H](NC(=O)C(=O)NCCc2cccs2)COc2ccccc21 [Example 97, (S)—N^1-(5-methyl-4-oxo-2,3,4,5-tetrahydrobenzo[b][1,4]oxazepin-3-yl)-N^2-(2-(thiophen-2-yl)ethyl)oxalamide]	100 to 500
≥ 75	CN1C(=O)[C@@H](NC(=O)C(=O)NCCc2ccsc2)COc2ccccc21 [Example 98, (S)—N-(5-methyl-4-oxo-2,3,4,5-tetrahydrobenzo[b][1,4]oxazepin-3-yl)-N^2-(2-(thiophen-3-yl)ethyl)oxalamide]	100 to 500
